# Source: patent EP4813403A1, “USE OF GLP-1R/GIPR DOUBLE-TARGET AGONIST IN PREPARING ANIMAL DRUG” (Hangzhou Zhongmeihuadong Pharmaceutical Co., Ltd., priority 2023, dated 2025)
# Molecular target: T1, rat GIPR (Rattus norvegicus, UniProt P43219)
# T1 construct: expressed in transfected cells; host or cells: CHO-K1 (transient)
# T1 sequence (P43219 19-455): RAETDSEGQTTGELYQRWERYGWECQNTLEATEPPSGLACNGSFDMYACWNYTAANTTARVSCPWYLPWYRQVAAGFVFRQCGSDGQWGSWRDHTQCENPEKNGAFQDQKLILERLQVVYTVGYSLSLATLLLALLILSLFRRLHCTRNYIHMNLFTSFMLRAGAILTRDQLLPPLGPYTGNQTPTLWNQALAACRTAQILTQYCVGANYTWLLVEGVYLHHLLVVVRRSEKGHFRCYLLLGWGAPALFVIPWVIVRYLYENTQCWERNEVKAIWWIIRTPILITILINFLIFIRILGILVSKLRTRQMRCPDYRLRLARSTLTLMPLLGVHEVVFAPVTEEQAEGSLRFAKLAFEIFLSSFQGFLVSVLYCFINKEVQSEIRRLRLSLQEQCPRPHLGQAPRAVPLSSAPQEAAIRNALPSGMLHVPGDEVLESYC
# Test: Agonistic activity on GIPR of different species (LANCE Ultra cAMP assay): rat
# Type: cell-based
# Conditions: ratio of EC50 value of other species to human EC50 value
compound,measurement,value
CC[C@H](C)[C@H](NC(=O)C(C)(C)NC(=O)[C@H](Cc1ccc(O)cc1)NC(=O)[C@H](CC(=O)O)NC(=O)[C@H](CO)NC(=O)[C@@H](NC(=O)C(C)(Cc1ccccc1)NC(=O)[C@@H](NC(=O)CNC(=O)[C@H](CCC(=O)O)NC(=O)C(C)(C)NC(=O)[C@@H](N)Cc1ccc(O)cc1)[C@@H](C)O)[C@@H](C)O)C(=O)NC(C)(C)C(=O)N[C@@H](CC(C)C)C(=O)N[C@@H](CC(=O)O)C(=O)N[C@@H](CCCCN)C(=O)N[C@@H](CCC(N)=O)C(=O)N[C@@H](C)C(=O)N[C@@H](CCC(N)=O)C(=O)N[C@@H](C)C(=O)N[C@@H](CCC(=O)O)C(=O)N[C@@H](Cc1ccccc1)C(=O)N[C@H](C(=O)N[C@@H](CCCCNC(=O)COCCOCCNC(=O)COCCOCCNC(=O)COCCOCCNC(=O)CC[C@H](NC(=O)CCCCCCCCCCCCCCCCCCCCC(=O)O)C(=O)O)C(=O)N[C@@H](Cc1c[nH]c2ccccc12)C(=O)N[C@@H](CC(C)C)C(=O)N[C@@H](CC(C)C)C(=O)N[C@@H](CCCCN)C(=O)NCC(=O)NCC(=O)N1CCC[C@H]1C(=O)N[C@@H](CO)C(=O)N[C@@H](CO)C(=O)NCC(=O)N[C@@H](C)C(=O)N1CCC[C@H]1C(=O)N1CCC[C@H]1C(=O)N1CCC[C@H]1C(=O)N[C@@H](CO)C(=O)N[C@@H](CCCCN)C(N)=O)C(C)C (stereo partly shown) [Compound P016],GIPR EC50 ratio,2.22
